The target in assay [1] is human CDK4 and genetically truncated (1-264) cyclin D3 (Homo sapiens, UniProt P11802). The assay is described as follows: Inhibition of CDK4/Cyclin D Retinoblastoma Kinase Activity. It is filed as biochemical. The settings on record: for Ki: apparent Ki, CDK4/truncated cyclin D3, Rb fragment substrate, 25 μM ATP. An outline of the steps:
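The enzyme complex (5 nM), expressed in co-infected insect cells, was incubated with recombinant Rb fragment, 25 μM radiolabelled ATP and 2% DMSO at 30 °C. Reactions were stopped with EDTA after 20 minutes, or 60 minutes for tight-binding inhibitors. Apparent Ki values came from competitive inhibition fits.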

Assay [2] has as its system HCT-116 cell line. The assay is described as follows: Inhibition of cell growth, tetrazolium salt (MTT) assay. In kind it is cell-based. The settings on record: for HCT-116 % Inhibition at 0.25 μM: 0.25 μM compound; for IC50: Homo sapiens, HCT-116, 120 h, MTT, three to five days, read-out: HCT-116 IC50. An outline of the steps: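 Growth inhibition is scored relative to cells receiving only 0.5% (v/v) DMSO. Plated cells rest 4 h, then take compound for three to five days at 37° C; MTT reduction to formazan is read at 540 nm.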

Assay [3] concerns the target CDK2/Cyclin A (Homo sapiens, UniProt P24941). Nature of the assay: Inhibition of CDK2/Cyclin A Retinoblastoma Kinase Activity. It is filed as biochemical. The note with it: for CDK2 % Inhibition At 0.03 μM: Table 2; for Ki: apparent Ki, CDK2/proteolyzed cyclin A, Rb fragment substrate, 25 μM ATP. An outline of the steps:
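CDK2 (10 or 19 nM), insect-cell expressed, gel-filtration purified with truncated cyclin A; Rb fragment substrate; 25 μM ATP; 10 mM HEPES pH 7.4, 10 mM MgCl2; 30° C, 60 or 75 min; EDTA stop; phosphocellulose/nitrocellulose capture, phosphorimager. % inhibition vs DMSO control, no-enzyme background subtracted.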

The structures appear in SMILES notation. Where a name gives a salt, the structure may show the parent alone. Read-outs that look alike come from different tables or passages of the source. Some results are limits rather than exact numbers.

The term IC50 denotes the concentration needed to halve the response being measured.

Chain of human CDK4 and genetically truncated (1-264) cyclin D3 (P11802 whole entry, the tested form may be a part): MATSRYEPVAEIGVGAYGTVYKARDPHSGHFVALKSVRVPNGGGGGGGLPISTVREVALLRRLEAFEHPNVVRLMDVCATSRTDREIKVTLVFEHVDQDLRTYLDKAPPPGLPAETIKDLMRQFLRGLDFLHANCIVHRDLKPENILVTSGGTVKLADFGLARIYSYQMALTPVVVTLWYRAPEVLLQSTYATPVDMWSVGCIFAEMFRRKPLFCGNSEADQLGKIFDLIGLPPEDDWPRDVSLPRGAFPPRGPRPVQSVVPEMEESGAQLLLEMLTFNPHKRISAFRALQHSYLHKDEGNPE
Chain of human CDK4 and genetically truncated (1-264) cyclin D3 (P30281 1-264 partner): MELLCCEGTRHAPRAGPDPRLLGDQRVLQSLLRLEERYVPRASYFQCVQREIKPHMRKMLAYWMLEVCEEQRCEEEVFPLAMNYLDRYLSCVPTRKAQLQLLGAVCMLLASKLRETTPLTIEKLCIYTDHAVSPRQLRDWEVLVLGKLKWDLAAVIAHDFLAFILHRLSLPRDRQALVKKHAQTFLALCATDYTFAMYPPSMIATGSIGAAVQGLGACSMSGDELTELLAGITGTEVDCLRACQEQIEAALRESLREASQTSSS

Take `Nc1nc(NC2CCN(C(=O)NCCc3ccc4c(c3)OCO4)CC2)sc1C(=O)c1c(F)cccc1F` [Example O87]: the “CDK4 % Inhibition at 0.03 μM” value in assay [1] (0.03 μM compound, Table 2) stood at 16%. For the same compound, the “HCT-116 % Inhibition at 0.25 μM” value in assay [2] (HCT-116, Table 2) worked out at 44%. Also, in assay [3] (0.03 μM compound), the “CDK2 % Inhibition At 0.03 μM” value worked out at 25%.

With `CC(Oc1ccccc1)C(=O)N1CCC(Nc2nc(N)c(C(=O)c3c(F)cccc3F)s2)CC1` (stereo not drawn) [Example R9], the “CDK4 % Inhibition at 0.03 μM” value in assay [1] (at 0.03 μM) was 19%. Moreover, the “HCT-116 % Inhibition at 0.1 μM” value in assay [2] (HCT-116 cells, at 0.1 μM) was found to be 5%. The “HCT-116 5 Inhibition at 0.25 μM” value in assay [2] (HCT-116 cells) is on record as 37. Further, the “CDK2 % Inhibition at 0.03 μM” value in assay [3] (at 0.03 μM) was −15%.

In the case of `COc1ccc(C(=O)N2CCC(Nc3nc(N)c(C(=O)c4c(F)cccc4F)s3)CC2)c(OC)c1` [Example R8], the “CDK4 % Inhibition at 0.03 μM” value in assay [1] (at 0.03 μM) stood at 13%. Also, the “HCT-116 % Inhibition at 0.1 μM” value in assay [2] (HCT-116 cells, at 0.1 μM) was 8%. The “HCT-116 5 Inhibition at 0.25 μM” value in assay [2] (HCT-116 cells) turned out to be 41. The “CDK2 % Inhibition at 0.03 μM” value in assay [3] (at 0.03 μM) was −11%.

`COc1ccc(C(=O)N2CCC(Nc3nc(N)c(C(=O)c4c(F)cccc4F)s3)CC2)cc1` [Example Q28]: the “CDK4 % Inhibition at 0.03 μM” value in assay [1] (0.03 μM compound, Table 4) was found to be 82%. For the same compound, the “HCT-116 % Inhibition at 0.1 μM” value in assay [2] (0.1 μM compound, HCT-116, Table 4) worked out at 6%. In addition, the “HCT-116 % Inhibition at 0.25 μM” value in assay [2] (HCT-116, Table 4) is 41%. Further, in assay [3] (0.03 μM compound, Table 4), the “CDK2 % Inhibition at 0.03 μM” value came out at 53%.

Regarding `Nc1nc(NC2CCN(C(=O)NCCc3cccs3)CC2)sc1C(=O)c1c(F)cccc1F` [Example O65], in assay [1] (0.03 μM compound, Table 2), the “CDK4 % Inhibition at 0.03 μM” value is recorded as −7%. The “HCT-116 % Inhibition at 0.25 μM” value in assay [2] (HCT-116, Table 2) was 44%. Also, in assay [3] (0.03 μM compound), the “CDK2 % Inhibition At 0.03 μM” value was found to be 22%.

On to `Nc1nc(NC2CCN(C(=O)c3c[nH]cn3)CC2)sc1C(=O)c1c(F)cccc1F` [Example C14, 1-{4-Amino-2-[1-(1-1H-imidazol-4-yl-methanoyl)-piperidin-4-ylamino]-thiazol-5-yl}-1-(2,6-difluoro-phenyl)-methanone], for which the Ki in assay [1] was 66 nM; in assay [3], 95 nM. Also, the IC50 in assay [2] (first HCT-116 column (c4)) and in assay [2] (second HCT-116 column (c5)) was greater than 5000 nM in each case.

For `CCNC(=O)N1CCC(Nc2nc(N)c(C(=O)c3c(F)cccc3F)s2)CC1` [Example O31], the “CDK4 % Inhibition at 0.03 μM” value in assay [1] (0.03 μM compound, Table 2) was found to be 6%. The “HCT-116 % Inhibition at 0.25 μM” value in assay [2] (HCT-116, Table 2) was determined as 37%. Besides, in assay [3] (0.03 μM compound), the “CDK2 % Inhibition At 0.03 μM” value is given as 33%.

For `COCCOC(=O)N1CCC(Nc2nc(N)c(C(=O)c3c(F)cccc3F)s2)CC1` [Example R82], the “CDK4 % Inhibition at 0.03 μM” value in assay [1] (at 0.03 μM) is on record as 17%. The “HCT-116 % Inhibition at 0.1 μM” value in assay [2] (HCT-116 cells, at 0.1 μM) is recorded as 0%. Also, the “HCT-116 5 Inhibition at 0.25 μM” value in assay [2] (HCT-116 cells) is 50. Further, the “CDK2 % Inhibition at 0.03 μM” value in assay [3] (at 0.03 μM) was −11%.

Regarding `Cc1noc(C)c1C(=O)N1CCC(Nc2nc(N)c(C(=O)c3c(F)cccc3F)s2)CC1` [Example R25], the “CDK4 % Inhibition at 0.03 μM” value in assay [1] (at 0.03 μM) amounted to 22%. Also, the “HCT-116 % Inhibition at 0.1 μM” value in assay [2] (HCT-116 cells, at 0.1 μM) is listed as 0%. Further, the “HCT-116 5 Inhibition at 0.25 μM” value in assay [2] (HCT-116 cells) is given as 43. In addition, the “CDK2 % Inhibition at 0.03 μM” value in assay [3] (at 0.03 μM) was −9%.

On to `Nc1nc(NC2CCN(S(=O)(=O)c3ccc(Oc4ccncc4)cc3)CC2)sc1C(=O)c1c(F)cccc1F` [Example P85], for which, in assay [1] (0.03 μM compound, Table 3), the “CDK4 % Inhibition at 0.03 μM” value came to 14%. Further, in assay [2] (0.1 μM compound, HCT-116, Table 3), the “HCT-116 % Inhibition at 0.1 μM” value is 12%. The “HCT-116 % Inhibition at 0.25 μM” value in assay [2] (HCT-116, Table 3) amounted to 26%. Also, in assay [3] (0.03 μM compound, Table 3), the “CDK2 % Inhibition at 0.03 μM” value was −28%.

For `CCC(Oc1ccccc1)C(=O)N1CCC(Nc2nc(N)c(C(=O)c3c(F)cccc3F)s2)CC1` (stereo not drawn) [Example R162], in assay [1] (at 0.03 μM), the “CDK4 % Inhibition at 0.03 μM” value was determined as 32%. Also, in assay [2] (HCT-116 cells, at 0.1 μM), the “HCT-116 % Inhibition at 0.1 μM” value came out at 0%. The “HCT-116 5 Inhibition at 0.25 μM” value in assay [2] (HCT-116 cells) is on record as 34. The “CDK2 % Inhibition at 0.03 μM” value in assay [3] (at 0.03 μM) is reported as 27%.

Regarding `CN1CCC[C@H](Oc2ccc(S(=O)(=O)N3CCC(Nc4nc(N)c(C(=O)c5c(F)cccc5F)s4)CC3)cn2)C1` [Example H29, (4-Amino-2-{1-[6-(1-methyl-piperidin-3S-yloxy)-pyridine-3-sulfonyl]-piperidin-4-ylamino}-thiazol-5-yl)-(2,6-difluoro-phenyl)-methanone Hydrochloride], the results for the Ki in assay [1] and in assay [3] were 1.3 nM and 0.52 nM, respectively. Besides, the IC50 in assay [2] (first HCT-116 column (c4)) was determined as 36 nM; in assay [2] (second HCT-116 column (c5)), 300 nM.

For the origin of these results see US20050101595A1, “N-containing cycloalkyl-substituted amino-thiazole derivatives and pharmaceutical compositions for inhibiting cell proliferation and methods for their use” (PFIZER INC., priority 2003, published 2005).
